Patent publication US8420574B2, “Plant growth enhancement with combinations of PESA and herbicides” (Valent BioSciences Corporation, priority 2009, dated 2013)
Structures can show the parent of a compound that is named as a salt.

How the values were obtained:
[1] = system: rice cv. Cheniere; test: Pouch assay, PESA salt and herbicide added to the pouch solution; root and shoot length; format: in vivo
Experimental: Alternatively, PESA salt and herbicides may be added separately to the sterile water in the growth pouch.
Seeds were placed in germination pouches consisting of germination paper hydrated with sterile water that was an insert in a gas-permeable 16×14 cm plastic pouch (CYG Pouch; Mega International, St. Paul, Minn.). In these examples, in pouch solution evaluation, PESA sodium salt or other active ingredients were added to the sterile water in the pouch. The pouches were arranged in a completely randomized block design in growth racks and placed in 19-liter polycarbonate food storage containers (Rubbermaid Commercial Products, Winchester, Va.). The sealed containers were held in an upright growth cabinet maintained at 25 C with a 12 hour light: 12 hour dark photoperiod. After 6 days, the containers were removed from the growth cabinet, and the lengths of the roots and shoot were measured.

[2] = system: rice cv. Cheniere; test: Emergence of seed-treated rice seeded onto soil previously treated with herbicide; format: in vivo; conditions: for Percent Emergence at 9 days after planting: untreated 90
Text: Seed was sieved with a screen of mesh size appropriate to remove broken seeds and small trash. Cracked or otherwise damaged seeds were removed. The seed was well mixed, and 50 g samples were weighed into small plastic trays. […] A fungicide (Maxim XL; Syngenta Agricultural Products, Greensboro, N.C.), a polymeric binder (CF-Clear; Becker-Underwood, Ames, Iowa), and a colorant (Color Coat Red; Becker-Underwood, Ames, Iowa) were also included in the slurry at label rates. A small aliquot of this slurry was applied to the seed using the Hege 11 coater (Wintersteiger, Salt Lake City, Utah) with a six-inch bowl at a slurry rate of 30 ounces per 100 lbs of seed. The slurry was deposited drop-wise on the spinning disk atomizer using a syringe.
Rice cv. […] It was then seeded onto soil which was previously sprayed with the pendimethalin herbicide Prowl H2O® (BASF Agricultural Products, Research Triangle Park, N.C.).
After seed treatment, rice was seeded into soil previously treated with the dithiopyr herbicide Dimension®.
Rice seed treated with PESA was tested for its ability to protect rice from the herbicide Roundup WeatherMax® (glyphosate). After seed treatment, rice was seeded into soil previously treated with the Roundup WeatherMax®.

## O=C(O)CCC(=O)NCCc1ccccc1 [PESA salt, N-(2-phenylethyl)succinamic acid]
[1]; 0 ppm pendimethalin, treatment 30 ppm PESA salt, 10 ppm GA3 or both, untreated 3.9
  Shoot Length: 3.8 cm
[1]; 0 ppm pendimethalin, treatment 30 ppm PESA salt, 10 ppm GA3 or both, untreated 9.7
  Root Length: 11.2 cm
[1]; 10 ppm dithiopyr, treatment none (Control), 30 ppm PESA salt, 10 ppm GA3 or both, untreated 3.9
  Shoot Length: 2.8 cm
[1]; 10 ppm dithiopyr, treatment none (Control), 30 ppm PESA salt, 10 ppm GA3 or both, untreated 9.5
  Root Length: 6.4 cm
[1]; 30 ppm PESA salt, 0 ppm chlorsulfuron, untreated 4.8
  Shoot Length: 4.9 cm
[1]; 30 ppm PESA salt, 0 ppm chlorsulfuron, untreated 11.6
  Root Length: 12.8 cm
[1]; 30 ppm PESA salt, 0 ppm dithiopyr, untreated 4.0
  Shoot Length: 4.2 cm
[1]; 30 ppm PESA salt, 0 ppm dithiopyr, untreated 9.5
  Root Length: 12.2 cm
[1]; 30 ppm PESA salt, 0 ppm metolachlor, untreated 3.7
  Shoot Length: 3.7 cm
[1]; 30 ppm PESA salt, 0 ppm metolachlor, untreated 9.3
  Root Length: 10.9 cm
[1]; 30 ppm PESA salt, 0 ppm pendimethalin, untreated 3.4
  Shoot Length: 3.6 cm
[1]; 30 ppm PESA salt, 0 ppm pendimethalin, untreated 8.5
  Root Length: 10.1 cm
[1]; 30 ppm PESA salt, 0 ppm trifluralin, untreated 3.2
  Shoot Length: 3.7 cm
[1]; 30 ppm PESA salt, 0 ppm trifluralin, untreated 9.2
  Root Length: 10.7 cm
[1]; 30 ppm PESA salt, 1 ppm dithiopyr, untreated 4.0
  Shoot Length: 4.0 cm
[1]; 30 ppm PESA salt, 1 ppm dithiopyr, untreated 9.5
  Root Length: 11.4 cm
[1]; 30 ppm PESA salt, 1 ppm metolachlor, untreated 3.7
  Shoot Length: 3.9 cm
[1]; 30 ppm PESA salt, 1 ppm metolachlor, untreated 9.3
  Root Length: 8.6 cm
[1]; 30 ppm PESA salt, 1 ppm trifluralin, untreated 3.2
  Shoot Length: 3.6 cm
[1]; 30 ppm PESA salt, 1 ppm trifluralin, untreated 9.2
  Root Length: 10.6 cm
[1]; 30 ppm PESA salt, 10 ppm chlorsulfuron, untreated 4.8
  Shoot Length: 0.9 cm
[1]; 30 ppm PESA salt, 10 ppm chlorsulfuron, untreated 11.6
  Root Length: 0.5 cm
[1]; 30 ppm PESA salt, 10 ppm dithiopyr, untreated 4.0
  Shoot Length: 3.7 cm
[1]; 30 ppm PESA salt, 10 ppm dithiopyr, untreated 9.5
  Root Length: 9.1 cm
[1]; 30 ppm PESA salt, 10 ppm metolachlor, untreated 3.7
  Shoot Length: 0.9 cm
[1]; 30 ppm PESA salt, 10 ppm metolachlor, untreated 9.3
  Root Length: 4.4 cm
[1]; 30 ppm PESA salt, 10 ppm pendimethalin, untreated 3.4
  Shoot Length: 3.2 cm
[1]; 30 ppm PESA salt, 10 ppm pendimethalin, untreated 8.5
  Root Length: 9.4 cm
[1]; 30 ppm PESA salt, 10 ppm trifluralin, untreated 3.2
  Shoot Length: 2.9 cm
[1]; 30 ppm PESA salt, 10 ppm trifluralin, untreated 9.2
  Root Length: 9.1 cm
[1]; 30 ppm PESA salt, 100 ppm chlorsulfuron, untreated 4.8
  Shoot Length: 0.8 cm
[1]; 30 ppm PESA salt, 100 ppm chlorsulfuron, untreated 11.6
  Root Length: 0.3 cm
[1]; 30 ppm PESA salt, 100 ppm dithiopyr, untreated 4.0
  Shoot Length: 1.1 cm
[1]; 30 ppm PESA salt, 100 ppm dithiopyr, untreated 9.5
  Root Length: 0.4 cm
[1]; 30 ppm PESA salt, 100 ppm metolachlor, untreated 3.7
  Shoot Length: 0.6 cm
[1]; 30 ppm PESA salt, 100 ppm metolachlor, untreated 9.3
  Root Length: 1.7 cm
[1]; 30 ppm PESA salt, 100 ppm pendimethalin, untreated 3.4
  Shoot Length: 1.0 cm
[1]; 30 ppm PESA salt, 100 ppm pendimethalin, untreated 8.5
  Root Length: 3.1 cm
[1]; 30 ppm PESA salt, 100 ppm trifluralin, untreated 3.2
  Shoot Length: 2.4 cm
[1]; 30 ppm PESA salt, 100 ppm trifluralin, untreated 9.2
  Root Length: 5.1 cm
[1]; 30 ppm PESA salt, 500 ppm pendimethalin, untreated 3.4
  Shoot Length: 0.5 cm
[1]; 30 ppm PESA salt, 500 ppm pendimethalin, untreated 8.5
  Root Length: 0.6 cm
[1]; 30 ppm PESA with 10 ppm dithiopyr
  protection of roots from herbicide: protected the roots largely from the negative effects of dithiopyr
[1]; 30 ppm PESA with 100 ppm trifluralin
  protection of roots from herbicide: largely protected the roots from the negative effects of trifluralin
[1]; 50 ppm pendimethalin, treatment none (Control), 30 ppm PESA salt, 10 ppm GA3 or both, untreated 3.9
  Shoot Length: 1.1 cm
[1]; 50 ppm pendimethalin, treatment none (Control), 30 ppm PESA salt, 10 ppm GA3 or both, untreated 9.7
  Root Length: 5.6 cm
[1]; PESA and pendimethalin, on average
  root length greater than with pendimethalin alone: 20%
[1]; PESA salt added to pendimethalin (Table 4)
  root length relative to pendimethalin alone: twice the length of those grown in pendimethalin alone
[1]; PESA salt in the absence of trifluralin
  effect on root and shoot length: significant increase in both root and shoot length
[1]; PESA salt with 10 ppm metolachlor
  protection of roots from herbicide: partially protected primary root length
[1]; PESA salt with chlorsulfuron, rice
  protection of root length from herbicide: had no activity in combination with chlorsulfuron
[1]; PESA salt with dithiopyr
  effect on shoot length under herbicide: did not significantly alter the negative effects of dithiopyr on shoot length
[1]; PESA salt with pendimethalin
  effect on shoot growth under herbicide: did not overcome the negative effects of pendimethalin on shoot growth
[1]; PESA salt with trifluralin
  effect on shoot length under herbicide: did not consistently overcome the negative effects of trifluralin on shoot length
[1]; addition of 30 ppm PESA to 100 ppm pendimethalin
  root length increased by: 25%
[1]; no dithiopyr (Control), treatment 30 ppm PESA salt, 10 ppm GA3 or both, untreated 3.9
  Shoot Length: 3.6 cm
[1]; no dithiopyr (Control), treatment 30 ppm PESA salt, 10 ppm GA3 or both, untreated 9.5
  Root Length: 10.7 cm
[2]; Dimension (dithiopyr) 0.25 pints/acre, seed treatment none (Control), 1 g GA3 and/or 50 g PESA salt per 100 lbs of seed, untreated 72.1
  Percent Emergence at 12 days after planting: 61.0%
[2]; Dimension (dithiopyr) 0.5 pints/acre, seed treatment none (Control), 1 g GA3 and/or 50 g PESA salt per 100 lbs of seed, untreated 72.1
  Percent Emergence at 12 days after planting: 13.9%
[2]; PESA seed treatment, soil treated with Roundup WeatherMax, at 90 μg/cm^2
  protection of emergence from glyphosate: could protect the rice seedlings from glyphosate
[2]; Prowl (pendimethalin) 0.25 pints/acre, seed treatment none (Control), 1 g GA3 and/or 50 g PESA salt per 100 lbs of seed, untreated 84.5
  Percent Emergence at 12 days after planting: 79.0%
[2]; Prowl (pendimethalin) 0.5 pints/acre, seed treatment none (Control), 1 g GA3 and/or 50 g PESA salt per 100 lbs of seed, untreated 84.5
  Percent Emergence at 12 days after planting: 80.7%
[2]; Prowl (pendimethalin) 2 pints/acre, seed treatment none (Control), 1 g GA3 and/or 50 g PESA salt per 100 lbs of seed, untreated 84.5
  Percent Emergence at 12 days after planting: 61.0%
[2]; no Dimension (Control), seed treatment 1 g GA3 and/or 50 g PESA salt per 100 lbs of seed, untreated 72.1
  Percent Emergence at 12 days after planting: 77.2%
[2]; no Prowl (Control), seed treatment 1 g GA3 and/or 50 g PESA salt per 100 lbs of seed, untreated 84.5
  Percent Emergence at 12 days after planting: 86.1%
[2]; seed treatment 25 g PESA salt per 100 kg of seed, glyphosate 0 μg/cm2
  Percent Emergence at 9 days after planting: 80%
[2]; seed treatment 25 g PESA salt per 100 kg of seed, glyphosate 23 μg/cm2
  Percent Emergence at 9 days after planting: 84%
[2]; seed treatment 25 g PESA salt per 100 kg of seed, glyphosate 90 μg/cm2
  Percent Emergence at 9 days after planting: 28%
[2]; seed treatment 50 g PESA salt per 100 kg of seed, glyphosate 0 μg/cm2
  Percent Emergence at 9 days after planting: 92%
[2]; seed treatment 50 g PESA salt per 100 kg of seed, glyphosate 23 μg/cm2
  Percent Emergence at 9 days after planting: 78%
[2]; seed treatment 50 g PESA salt per 100 kg of seed, glyphosate 90 μg/cm2
  Percent Emergence at 9 days after planting: 38%
[2]; seed treatment, soil sprayed with Prowl H2O, particularly at 2 pints/acre
  protection of emergence from pendimethalin: could protect the rice seedlings from pendimethalin
[2]; seed treatment, soil treated with Dimension, particularly at 0.25 and 0.5 pints/acre
  protection of emergence from dithiopyr: could protect the rice seedlings from dithiopyr
